Data from patent US12221422B2, “Compounds and their use for the treatment of alpha1-antitrypsin deficiency” (CENTESSA PHARMACEUTICALS (UK) LIMITED, priority 2018, dated 2025).

Experiments:
human M A1AT = biological target: T1, human M A1AT (Homo sapiens, UniProt P01009); test: A1AT cell secretion assay using HEK-M cells (ELISA); format: cell-based; conditions: 10 μM, 48 h
T1 construct: expressed in transfected cells; host or cells: HEK-M (HEK-EBNA cells containing the M A1AT plasmid)
Protocol: (§1) HEK-M cells, a human embryonic kidney cell line stably transfected with the human M A1AT gene, were plated into 96 well plates (3.0×10^5 cells/ml with 200 μl of media/well) overnight at 37° C. in a humidified atmosphere containing 5% CO2. Following incubation cells were washed with 200 μl serum-free media three times and media was replaced with serum-free media containing either vehicle, 10 μM suberanilohydroxamic acid (SAHA) or a compound of the invention (at 10 μM) in replicates of six for 48 h in a 37° C. incubator in a final volume of 200 μl. […]
(§2) Briefly, a 96 well plate was coated with human A1AT capture antibody overnight at room temperature (1:180 dilution from stock, 100 μl final volume/well). […] After which, 50 μl stop solution (2M H2SO4) was added and optical density (OD) of each well was read at 450 nm with 570 nm blank subtracted from each well using a microplate reader. A 4 parameter logistic curve was constructed using GraphPad Prism 7 and A1AT concentrations were determined in each sample by interpolation from a standard curve and multiplying by the appropriate dilution factor.
(§3) The amount of A1AT secreted from transfected HEK-EBNA cells into the media was measured by ELISA. […]

human Siiyama A1AT = biological target: T2, human Siiyama A1AT (Homo sapiens, UniProt P01009, S77F); test: A1AT cell secretion assay using HEK-Siiyama cells (ELISA); format: cell-based; conditions: 1 or 10 μM, 48 h
T2 construct: expressed in transfected cells; host or cells: HEK-Siiyama (HEK-EBNA cells containing the Siiyama A1AT plasmid)
Protocol: as §1, with “HEK-Siiyama cells,” for “HEK-M cells,”, “human Siiyama” for “human M”, “(at 1 or” for “(at”, “of eight” for “of six”
as §2
The amount of human A1AT secreted from transfected HEK-EBNA cells into the media was measured by ELISA. […]

Pharmacokinetics in mice = format: in vivo; conditions: male C57BI/6 mice
Protocol: N,N-dimethyl-4-((6-oxopyrimidin-1(6H)-yl)methyl)benzamide was administered to male C57BI/6 mice intravenously (2 mg/kg) or orally (10 mg/kg) by gavage. Whole blood diluted with water was prepared from these dosed animals over a time course up to 24 hours post dose to allow blood concentrations of drug to be measured by UPLC-MS/MS.

[1] = Plasma protein binding, rat plasma (rapid equilibrium dialysis); format: in vitro ADME; conditions: 37° C.
Protocol: (§4) The extent to which compounds of the invention bound to plasma proteins such as albumin and alpha-1 acid glycoprotein within human, rat or mouse plasma was determined by rapid equilibrium dialysis. Compounds were incubated at 5 μM for 4 hours at 37° C. Plasma protein binding for N,N-dimethyl-4-((6-oxopyrimidin-1(6H)-yl)methyl)benzamide in mouse plasma was 37.3%, in rat plasma was 14.8% and in human plasma was 30.6%.

[2] = Plasma protein binding, human plasma (rapid equilibrium dialysis); format: in vitro ADME; conditions: 37° C.
Protocol: as §4

human Z A1AT = human Z A1AT (Homo sapiens, UniProt P01009, E366K); test: A1AT cell secretion assay using HEK-Z cells (ELISA); format: cell-based; set-up: expressed in transfected cells; host or cells: HEK-Z (HEK-EBNA cells containing the Z A1AT plasmid); conditions: HEK-Z cells, 10, 33, 100 and 333 nM, 48 h, cell supernatant
Protocol: HEK-Z cells, a human embryonic kidney cell line stably transfected with the human Z A1AT gene, were plated into 96 well plates (3.0×10^5 cells/ml with 200 μl of media/well) overnight at 37° C. in a humidified atmosphere containing 5% CO2. Following incubation cells were washed with 200 μl serum-free media three times and media was replaced with treatments in quadruplicate using serum-free media containing either vehicle, 10 μM suberanilohydroxamic acid (SAHA), N,N-dimethyl-4-((6-oxopyrimidin-1(6H)-yl)methyl)benzamide (at concentrations of 10, 33, 100 and 333 nM), N,N-(bis-methyl-d3)-4-((6-oxopyrimidin-1(6H)-yl)methyl)benzamide (at concentrations of 10, 33, 100 and 333 nM) or N-methyl-4-((6-oxopyrimidin-1(6H)-yl)methyl)benzamide (at concentrations of 10, 33, 100 and 333 nM) for 48 h in a 37° C. incubator in a final volume of 200 μl. At the end of the incubation step the supernatants were removed from the wells, centrifuged at 1000×g at 4° C. for 10 min and were assayed for human A1AT levels by ELISA (Human Serpin A1/α1-antitrypsin duo set ELISA, R& D Systems, DY1268) per manufacturer's instructions.
as §2, with “volume/well). The capture antibody was then removed and wells washed three times with 300 μl wash buffer (0.05% Tween 20 in PBS) and then 200 μl reagent diluent ([…]) was incubated in each well for 1 h at room temperature.” for “volume/well).”
as §3

[3] = mouse, whole blood, iv 2 mg/kg or oral 10 mg/kg (route not stated), blood

Sequence of human Z A1AT (P01009 25-418 E366K): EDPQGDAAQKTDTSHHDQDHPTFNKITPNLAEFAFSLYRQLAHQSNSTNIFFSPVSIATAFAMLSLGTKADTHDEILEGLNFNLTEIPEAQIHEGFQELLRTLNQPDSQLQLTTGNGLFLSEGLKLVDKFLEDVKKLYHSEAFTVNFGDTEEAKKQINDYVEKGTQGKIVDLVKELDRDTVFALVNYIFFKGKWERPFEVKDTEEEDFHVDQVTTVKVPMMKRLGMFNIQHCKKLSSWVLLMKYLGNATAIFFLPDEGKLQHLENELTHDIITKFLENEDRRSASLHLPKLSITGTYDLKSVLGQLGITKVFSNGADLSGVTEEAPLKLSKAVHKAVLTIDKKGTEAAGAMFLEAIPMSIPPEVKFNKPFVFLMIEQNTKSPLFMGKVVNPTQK
T1 sequence (P01009 25-418): as the sequence (P01009 25-418 E366K) above, with K342E counted along it
T2 sequence (P01009 25-418 S77F): as the sequence (P01009 25-418 E366K) above, with S53F, K342E counted along it

## CN(C)C(=O)c1ccc(Cn2cnccc2=O)cc1 [N,N-dimethyl-4-((6-oxopyrimidin-1(6H)-yl)methyl)benzamide]
Human M A1AT
  secretion of M A1AT as measured by ELISA: does not stimulate secretion of M A1AT
Human Siiyama A1AT
  secretion of Siiyama A1AT as measured by ELISA: does not stimulate secretion of Siiyama A1AT
Pharmacokinetics in mice; oral 10 mg/kg vs iv 2 mg/kg
  Oral Bioavailability (F, AUCINF): 73%
Pharmacokinetics in mice; [3]
  AUC: 15600 ng·h/mL
  AUC(0-inf): 15600 ng·h/mL
Pharmacokinetics in mice; mouse, whole blood, iv 2 mg/kg or oral 10 mg/kg, read-out: Half-life in blood (t1/2) (converted)
  half-life: 1.9 h
Pharmacokinetics in mice; mouse, whole blood, iv 2 mg/kg or oral 10 mg/kg, read-out: Observed clearance
  clearance: 7.8 mL/min/kg
Pharmacokinetics in mice; mouse, whole blood, iv 2 mg/kg or oral 10 mg/kg, read-out: Volume of distribution (Vz)
  Vd: 1.3 L/kg
Pharmacokinetics in mice; mouse, whole blood, oral 10 mg/kg, blood
  Cmax: 9310 ng/mL
[1]
  fraction unbound at 4 h, 5 μM: 0.852
[2]
  fraction unbound at 4 h, 5 μM: 0.694
Human Z A1AT
  secretion of Z A1AT as measured by ELISA: stimulates secretion of Z A1AT in a dose dependent manner
